From PMC5791972 (PLoS ONE, 2018)
Like-named read-outs stand apart in the source and are kept apart here.

Experiments:
[1] = biological target: T1, α2B (h) (Homo sapiens, UniProt P18089); assay: biochemical; format: binding; conditions: 1.0E-06 M
T1 construct: host or cells: CHO cells
T1 sequence (P18089 1-450): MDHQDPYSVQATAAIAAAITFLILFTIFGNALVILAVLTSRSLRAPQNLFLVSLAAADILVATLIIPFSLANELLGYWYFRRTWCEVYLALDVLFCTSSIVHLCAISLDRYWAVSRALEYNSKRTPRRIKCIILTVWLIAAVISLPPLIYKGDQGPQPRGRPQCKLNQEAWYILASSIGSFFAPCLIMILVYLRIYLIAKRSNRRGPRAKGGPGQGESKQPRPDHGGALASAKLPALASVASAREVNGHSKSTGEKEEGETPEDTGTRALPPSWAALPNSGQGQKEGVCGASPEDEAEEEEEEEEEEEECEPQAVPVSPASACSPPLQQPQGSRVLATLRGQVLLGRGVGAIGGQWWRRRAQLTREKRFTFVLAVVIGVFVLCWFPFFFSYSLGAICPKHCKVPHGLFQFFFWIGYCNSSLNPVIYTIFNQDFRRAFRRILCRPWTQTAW

[2] = biological target: T2, tyrosine hydroxylase (Rattus norvegicus, UniProt P04177); assay: enzyme assay; format: biochemical; conditions: 1.0E-06 M
T2 construct: rat striatum; from tissue; host or cells: rat striatum

[3] = biological target: T3, α1A (h) (Homo sapiens, UniProt P35348); format: binding; conditions: 1 h, 1.0E-06 M
T3 construct: expressed in transfected cells; host or cells: CHO cells
T3 sequence (P35348 1-466): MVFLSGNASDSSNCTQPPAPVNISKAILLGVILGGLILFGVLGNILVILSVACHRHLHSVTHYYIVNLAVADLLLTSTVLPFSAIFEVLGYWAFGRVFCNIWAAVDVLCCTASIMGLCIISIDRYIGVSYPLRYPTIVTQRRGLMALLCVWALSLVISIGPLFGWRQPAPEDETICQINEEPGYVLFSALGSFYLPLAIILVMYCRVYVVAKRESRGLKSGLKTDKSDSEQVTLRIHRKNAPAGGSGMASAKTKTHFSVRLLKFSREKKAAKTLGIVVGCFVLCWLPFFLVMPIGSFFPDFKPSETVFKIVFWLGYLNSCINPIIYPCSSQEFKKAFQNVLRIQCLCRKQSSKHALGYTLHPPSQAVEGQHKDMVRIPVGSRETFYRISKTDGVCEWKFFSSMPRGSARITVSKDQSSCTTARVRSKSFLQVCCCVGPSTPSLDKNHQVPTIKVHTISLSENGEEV

[4] = biological target: TRPM8 (Homo sapiens, UniProt Q7Z2W7); assay: cell-based
[5] = biological target: T4, ETB (h) (Homo sapiens, UniProt P24530); format: binding
T4 construct: host or cells: CHO cells
T4 sequence (P24530 27-442): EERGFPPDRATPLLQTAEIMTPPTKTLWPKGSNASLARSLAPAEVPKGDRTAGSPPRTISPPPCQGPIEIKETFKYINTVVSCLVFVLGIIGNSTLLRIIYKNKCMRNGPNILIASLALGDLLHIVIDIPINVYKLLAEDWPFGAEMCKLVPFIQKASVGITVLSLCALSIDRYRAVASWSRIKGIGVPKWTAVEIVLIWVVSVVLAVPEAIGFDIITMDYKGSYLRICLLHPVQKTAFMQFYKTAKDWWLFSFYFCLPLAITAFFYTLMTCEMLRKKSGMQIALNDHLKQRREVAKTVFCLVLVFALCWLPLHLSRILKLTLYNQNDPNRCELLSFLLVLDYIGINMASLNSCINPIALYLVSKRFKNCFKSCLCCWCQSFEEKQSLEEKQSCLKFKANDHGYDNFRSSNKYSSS

[6] = biological target: Lyn A kinase (h) (Homo sapiens, UniProt P07948); assay: biochemical; conditions: 1.0E-06 M
[7] = biological target: GABA transporter (Rattus norvegicus, UniProt P23978)
[8] = biological target: 5-HT1D (Rattus norvegicus, UniProt P28565); assay: biochemical
[9] = biological target: T5, AT1 (h) (Homo sapiens, UniProt P30556); format: binding; conditions: 1.0E-06 M
T5 construct: host or cells: HEK-293 cells
T5 sequence (P30556 1-359): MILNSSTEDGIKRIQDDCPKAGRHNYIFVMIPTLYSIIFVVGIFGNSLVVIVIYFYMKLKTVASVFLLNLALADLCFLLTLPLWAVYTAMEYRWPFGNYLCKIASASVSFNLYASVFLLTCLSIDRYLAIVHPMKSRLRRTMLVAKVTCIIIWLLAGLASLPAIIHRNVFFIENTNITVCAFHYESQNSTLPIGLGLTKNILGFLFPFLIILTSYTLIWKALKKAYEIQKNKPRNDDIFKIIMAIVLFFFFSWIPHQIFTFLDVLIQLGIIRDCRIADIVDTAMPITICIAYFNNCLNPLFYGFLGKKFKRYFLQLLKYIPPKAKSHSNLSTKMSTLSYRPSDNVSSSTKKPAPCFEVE

[10] = biological target: T6, H2 (h) (Homo sapiens, UniProt P25021); format: binding; conditions: 1.0E-06 M
T6 construct: host or cells: CHO cells
T6 sequence (P25021 whole entry): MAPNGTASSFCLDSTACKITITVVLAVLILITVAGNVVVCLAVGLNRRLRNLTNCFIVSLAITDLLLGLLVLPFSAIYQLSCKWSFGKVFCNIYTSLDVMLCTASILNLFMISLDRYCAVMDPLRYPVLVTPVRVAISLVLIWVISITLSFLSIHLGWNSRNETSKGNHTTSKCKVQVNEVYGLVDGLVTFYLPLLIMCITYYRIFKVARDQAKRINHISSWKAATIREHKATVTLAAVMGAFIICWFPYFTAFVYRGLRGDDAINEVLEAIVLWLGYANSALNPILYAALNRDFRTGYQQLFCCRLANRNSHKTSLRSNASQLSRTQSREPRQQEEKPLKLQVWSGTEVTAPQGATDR

Sequence of 5-HT1D (P28565 whole entry): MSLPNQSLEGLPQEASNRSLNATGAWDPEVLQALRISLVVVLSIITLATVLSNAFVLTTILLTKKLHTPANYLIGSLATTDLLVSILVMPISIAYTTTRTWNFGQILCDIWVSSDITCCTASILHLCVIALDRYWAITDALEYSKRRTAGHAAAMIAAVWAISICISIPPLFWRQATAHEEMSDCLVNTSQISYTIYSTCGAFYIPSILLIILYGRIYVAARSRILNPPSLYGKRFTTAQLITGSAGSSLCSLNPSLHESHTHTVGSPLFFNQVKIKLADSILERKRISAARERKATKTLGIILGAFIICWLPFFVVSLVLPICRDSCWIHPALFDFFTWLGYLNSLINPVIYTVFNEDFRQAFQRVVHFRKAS
Sequence of Lyn A kinase (h) (P07948 whole entry): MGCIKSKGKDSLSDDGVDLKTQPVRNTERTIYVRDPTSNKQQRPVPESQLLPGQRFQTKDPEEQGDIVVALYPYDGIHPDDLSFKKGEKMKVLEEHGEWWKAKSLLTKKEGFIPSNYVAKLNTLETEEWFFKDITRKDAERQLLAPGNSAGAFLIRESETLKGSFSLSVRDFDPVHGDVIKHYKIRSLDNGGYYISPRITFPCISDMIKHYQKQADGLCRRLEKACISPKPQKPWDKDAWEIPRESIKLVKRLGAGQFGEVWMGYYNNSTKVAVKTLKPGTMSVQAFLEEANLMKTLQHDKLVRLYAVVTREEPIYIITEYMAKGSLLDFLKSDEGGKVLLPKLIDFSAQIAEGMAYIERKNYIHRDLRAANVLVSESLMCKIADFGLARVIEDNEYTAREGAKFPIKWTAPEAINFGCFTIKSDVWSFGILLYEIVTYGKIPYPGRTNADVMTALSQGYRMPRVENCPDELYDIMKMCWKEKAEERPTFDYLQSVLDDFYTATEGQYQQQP
T2 sequence (P04177 whole entry): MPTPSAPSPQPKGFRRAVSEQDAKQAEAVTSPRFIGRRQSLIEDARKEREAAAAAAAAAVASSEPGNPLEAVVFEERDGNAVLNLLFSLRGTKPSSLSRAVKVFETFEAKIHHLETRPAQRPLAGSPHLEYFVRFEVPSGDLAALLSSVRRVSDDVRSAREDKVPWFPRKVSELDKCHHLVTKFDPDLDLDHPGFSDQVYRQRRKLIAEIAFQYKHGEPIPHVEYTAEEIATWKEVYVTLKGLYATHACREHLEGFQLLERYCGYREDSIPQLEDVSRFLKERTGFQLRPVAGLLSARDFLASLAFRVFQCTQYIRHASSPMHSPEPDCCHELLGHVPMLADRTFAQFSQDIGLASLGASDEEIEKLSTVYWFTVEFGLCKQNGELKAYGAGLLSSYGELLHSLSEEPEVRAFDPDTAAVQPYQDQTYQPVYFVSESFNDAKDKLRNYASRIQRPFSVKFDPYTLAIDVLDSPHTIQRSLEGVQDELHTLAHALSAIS
Sequence of TRPM8 (Q7Z2W7 whole entry, species assumed): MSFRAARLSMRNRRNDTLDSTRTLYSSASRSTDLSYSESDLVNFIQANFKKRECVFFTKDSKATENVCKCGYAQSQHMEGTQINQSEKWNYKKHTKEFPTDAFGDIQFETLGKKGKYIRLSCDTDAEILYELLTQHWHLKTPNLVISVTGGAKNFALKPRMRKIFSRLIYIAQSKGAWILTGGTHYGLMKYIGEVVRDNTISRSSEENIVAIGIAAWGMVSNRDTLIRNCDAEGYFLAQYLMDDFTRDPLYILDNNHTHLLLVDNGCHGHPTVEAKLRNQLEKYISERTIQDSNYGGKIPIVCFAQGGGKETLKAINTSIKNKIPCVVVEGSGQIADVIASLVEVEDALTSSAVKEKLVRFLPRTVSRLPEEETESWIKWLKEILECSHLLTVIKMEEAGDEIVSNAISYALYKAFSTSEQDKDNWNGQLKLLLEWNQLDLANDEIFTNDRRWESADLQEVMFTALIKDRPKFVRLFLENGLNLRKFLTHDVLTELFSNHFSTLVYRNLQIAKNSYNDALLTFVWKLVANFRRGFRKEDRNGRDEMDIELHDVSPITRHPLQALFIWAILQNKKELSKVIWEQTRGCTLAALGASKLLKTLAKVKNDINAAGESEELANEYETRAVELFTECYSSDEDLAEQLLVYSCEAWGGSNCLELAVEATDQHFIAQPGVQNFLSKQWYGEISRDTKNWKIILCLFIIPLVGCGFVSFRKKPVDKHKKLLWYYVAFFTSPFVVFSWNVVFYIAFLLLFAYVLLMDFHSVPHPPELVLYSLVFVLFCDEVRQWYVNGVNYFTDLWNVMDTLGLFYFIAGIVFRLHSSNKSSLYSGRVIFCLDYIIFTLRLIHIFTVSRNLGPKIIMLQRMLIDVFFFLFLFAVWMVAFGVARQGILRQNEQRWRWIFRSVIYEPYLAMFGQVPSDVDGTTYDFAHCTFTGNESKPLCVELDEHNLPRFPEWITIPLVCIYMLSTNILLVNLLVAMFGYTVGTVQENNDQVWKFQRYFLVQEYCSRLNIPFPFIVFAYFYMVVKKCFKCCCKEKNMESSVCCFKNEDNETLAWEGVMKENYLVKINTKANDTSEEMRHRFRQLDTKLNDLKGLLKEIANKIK

Cn1c(=O)n(CCCO)c(=O)c2c1nc(Oc1cccc(Cl)c1)n2Cc1ccc(Cl)cc1 [HC-070]
inhibition at 1 µM ([1]; read-out: % Inhibition 1st): -22.3% | inhibition at 1 µM ([1]; read-out: % Inhibition 2nd): -1.2% | inhibition at 1 µM ([1]; read-out: % Inhibition Mean): -11.7% | inhibition at 1 µM ([2]; read-out: % Inhibition 1st): -27.2% | inhibition at 1 µM ([2]; read-out: % Inhibition Mean): -23% | inhibition at 1 µM ([3]; read-out: % Inhibition 1st): -6.1% | inhibition at 1 µM ([3]; read-out: % Inhibition 2nd): 3.1% | inhibition at 1 µM ([3]; read-out: % Inhibition Mean): -1.5%

Cn1c(=O)n(CCCO)c(=O)c2c1nc(Oc1cccc(OC(F)(F)F)c1)n2Cc1ccc(Cl)cc1 [HC-608]
IC50 [4]: > 1.64 µM | inhibition at 1 µM ([5]; 1.0E-06 M, read-out: % Inhibition 2nd): -0.1% | inhibition at 1 µM ([5]; 1.0E-06 M, read-out: % Inhibition Mean): 12.7% | inhibition at 1 µM ([5]; read-out: % Inhibition 1st): 25.5% | inhibition at 1 µM ([1]; read-out: % Inhibition 1st): -7.4% | inhibition at 1 µM ([1]; read-out: % Inhibition 2nd): -0.7% | inhibition at 1 µM ([1]; read-out: % Inhibition Mean): -4% | inhibition at 1 µM ([6]; read-out: % Inhibition 1st): 13.7% | inhibition at 1 µM ([6]; read-out: % Inhibition 2nd): 5.5% | inhibition at 1 µM ([6]; read-out: % Inhibition Mean): 9.6% | % Inhibition 2nd [7]: -18.4% | % Inhibition Mean [7]: -15.7% | inhibition at 1 µM ([8]; read-out: % Inhibition 1st): -4.2% | inhibition at 1 µM ([8]; read-out: % Inhibition 2nd): -8.8% | inhibition at 1 µM ([8]; read-out: % Inhibition Mean): -6.5% | inhibition at 1 µM ([9]; read-out: % Inhibition 1st): 0.5% | inhibition at 1 µM ([9]; read-out: % Inhibition 2nd): -6% | inhibition at 1 µM ([9]; read-out: % Inhibition Mean): -2.7% | inhibition at 1 µM ([10]; read-out: % Inhibition 1st): 1.1% | inhibition at 1 µM ([10]; read-out: % Inhibition 2nd): 7.7% | inhibition at 1 µM ([10]; read-out: % Inhibition Mean): 4.4%
